# Source: US8278452B2, “Heterocyclic compounds and compositions as c-kit and PDGFR kinase inhibitors” (IRM LLC, priority 2008, dated 2012)
# Tested on: Mo7e cells which endogenously express c-kit
# Test: Mo7e assay: inhibition of SCF dependent proliferation (MTT)
# Format: cell-based
# Settings: Table 1; SCF stimulated Mo7e cells, 48 hours, MTT
# Description: The compounds described herein are tested for inhibition of SCF dependent proliferation using Mo7e cells which endogenously express c-kit in a 96 well format. Two-fold serially diluted test compounds (Cmax=10 μM) are evaluated for their antiproliferative activity of Mo7e cells stimulated with human recombinant SCF. After 48 hours of incubation at 37° C., cell viability is measured by using a MTT colorimetric assay from Promega. IC50 values for compounds of the invention are quoted in table 1, supra.
row,SMILES,IC50
1,"COc1ccc(-c2nnc(Nc3ccc(C)c(-c4cc5cnc(C)cc5n(C)c4=O)c3)o2)cc1 [Compound B2, 3-(5-{[5-(4-methoxyphenyl)-1,3,4-oxadiazol-2-yl]amino}-2-methylphenyl)-1,7-dimethyl-1,2-dihydro-1,6-naphthyridin-2-one]",0.085 µM
2,"Cc1cc2c(cn1)cc(-c1cc(Nc3noc(-c4ccccc4C)n3)ccc1C)c(=O)n2C [Compound A16, 1,7-dimethyl-3-(2-methyl-5-{[5-(2-methylphenyl)-1,2,4-oxadiazol-3-yl]amino}phenyl)-1,2-dihydro-1,6-naphthyridin-2-one]",0.114 µM
3,"Cc1cc2c(cn1)cc(-c1cc(Nc3noc([C@@H]4CCCO4)n3)ccc1C)c(=O)n2C [Compound A77, (S)-1,7-dimethyl-3-(2-methyl-5-(5-(tetrahydrofuran-2-yl)-1,2,4-oxadiazol-3-ylamino)phenyl)-1,6-naphthyridin-2(1H)-one]",0.027 µM
4,"Cc1cc2c(cn1)cc(-c1cc(Nc3noc([C@H]4CCCCO4)n3)ccc1C)c(=O)n2C [Compound A99, 1,7-dimethyl-3-[2-methyl-5-({5-[(2R)-oxan-2-yl]-1,2,4-oxadiazol-3-yl}amino)phenyl]-1,2-dihydro-1,6-naphthyridin-2-one]",0.1 µM
5,"Cc1cc2c(cn1)cc(-c1cc(Nc3noc(C(O)C(C)C)n3)ccc1C)c(=O)n2C (stereo in doubt) [Compound A92, (R)-3-(5-(5-(1-hydroxy-2-methylpropyl)-1,2,4-oxadiazol-3-ylamino)-2-methylphenyl)-1,7-dimethyl-1,6-naphthyridin-2(1H)-one]",0.104 µM
6,Cc1cc2c(cn1)cc(-c1cc(Nc3cc(-c4ccccn4)on3)ccc1C)c(=O)n2C [Compound D3],0.158 µM
7,Cc1cc2c(cn1)cc(-c1cc(Nc3cc(-c4ccc(OC(F)(F)F)cc4)on3)ccc1C)c(=O)n2C [Compound D2],0.428 µM
8,"Cc1cc2c(cn1)cc(-c1cc(Nc3noc(-c4cccc(Cl)c4)n3)ccc1C)c(=O)n2C [Compound A20, 3-(5-{[5-(3-chlorophenyl)-1,2,4-oxadiazol-3-yl]amino}-2-methylphenyl)-1,7-dimethyl-1,2-dihydro-1,6-naphthyridin-2-one]",0.33 µM
9,"Cc1cc2c(cn1)cc(-c1cc(Nc3noc(-c4ccc(F)c(F)c4)n3)ccc1C)c(=O)n2C [Compound A62, 3-(5-{[5-(3,4-difluorophenyl)-1,2,4-oxadiazol-3-yl]amino}-2-methylphenyl)-1,7-dimethyl-1,2-dihydro-1,6-naphthyridin-2-one]",0.126 µM
10,"Cc1cc2c(cn1)cc(-c1cc(Nc3noc(-c4cccc(C#N)c4)n3)ccc1C)c(=O)n2C [Compound A40, 3-(3-{[3-(1,7-dimethyl-2-oxo-1,2-dihydro-1,6-naphthyridin-3-yl)-4-methylphenyl]amino}-1,2,4-oxadiazol-5-yl)benzonitrile]",0.299 µM
11,"Cc1cc2c(cn1)cc(-c1cc(Nc3noc([C@H]4C[C@@](C)(O)C4)n3)ccc1C)c(=O)n2C [Compound A101, 3-(5-{[5-(3-hydroxy-3-methylcyclobutyl)-1,2,4-oxadiazol-3-yl]amino}-2-methylphenyl)-1,7-dimethyl-1,2-dihydro-1,6-naphthyridin-2-one]",0.205 µM
12,"Cc1cc2c(cn1)cc(-c1cc(Nc3noc(-c4ccncc4)n3)ccc1C)c(=O)n2C [Compound A50, 1,7-dimethyl-3-(2-methyl-5-{[5-(pyridin-4-yl)-1,2,4-oxadiazol-3-yl]amino}phenyl)-1,2-dihydro-1,6-naphthyridin-2-one]",0.271 µM
13,"Cc1cc2c(cn1)cc(-c1cc(Nc3nnc(C4CCCCC4)[nH]3)ccc1C)c(=O)n2C [Compound C3, 3-{5-[(5-cyclohexyl-4H-1,2,4-triazol-3-yl)amino]-2-methylphenyl}-1,7-dimethyl-1,2-dihydro-1,6-naphthyridin-2-one]",0.279 µM
14,"Cc1cc2c(cn1)cc(-c1cc(Nc3noc(C(C)Oc4ccccc4)n3)ccc1C)c(=O)n2C (stereo not shown) [Compound A96, 1,7-dimethyl-3-(2-methyl-5-{[5-(1-phenoxyethyl)-1,2,4-oxadiazol-3-yl]amino}phenyl)-1,2-dihydro-1,6-naphthyridin-2-one]",0.419 µM
15,"Cc1cc2c(cn1)cc(-c1cc(Nc3noc(C4CCCCO4)n3)ccc1C)c(=O)n2C (stereo not shown) [Compound A85, 1,7-dimethyl-3-(2-methyl-5-{[5-(oxan-2-yl)-1,2,4-oxadiazol-3-yl]amino}phenyl)-1,2-dihydro-1,6-naphthyridin-2-one]",0.079 µM
16,"Cc1cc2c(cn1)cc(-c1cc(Nc3noc(C(C)(C)O)n3)ccc1C)c(=O)n2C [Compound A32, 3-(5-(5-(2-hydroxypropan-2-yl)-1,2,4-oxadiazol-3-ylamino)-2-methylphenyl)-1,7-dimethyl-1,6-naphthyridin-2(1H)-one]",0.172 µM
17,"Cc1cc2c(cn1)cc(-c1cc(Nc3noc(CC(C)(C)C)n3)ccc1C)c(=O)n2C [Compound A19, 3-(5-{[5-(2,2-dimethylpropyl)-1,2,4-oxadiazol-3-yl]amino}-2-methylphenyl)-1,7-dimethyl-1,2-dihydro-1,6-naphthyridin-2-one]",0.216 µM
18,"Cc1cc2c(cn1)cc(-c1cc(Nc3noc(-c4cccn4C)n3)ccc1C)c(=O)n2C [Compound A21, 1,7-dimethyl-3-(2-methyl-5-{[5-(1-methyl-1H-pyrrol-2-yl)-1,2,4-oxadiazol-3-yl]amino}phenyl)-1,2-dihydro-1,6-naphthyridin-2-one]",0.129 µM
19,"Cc1cc2c(cn1)cc(-c1cc(Nc3noc(C4(O)CC4)n3)ccc1C)c(=O)n2C [Compound A57, 3-(5-(5-(1-hydroxycyclopropyl)-1,2,4-oxadiazol-3-ylamino)-2-methylphenyl)-1,7-dimethyl-1,6-naphthyridin-2(1H)-one]",0.185 µM
20,"Cc1cc2c(cn1)cc(-c1cc(Nc3noc(-c4ccc(Cl)cc4Cl)n3)ccc1C)c(=O)n2C [Compound A82, 3-(5-{[5-(2,4-dichlorophenyl)-1,2,4-oxadiazol-3-yl]amino}-2-methylphenyl)-1,7-dimethyl-1,2-dihydro-1,6-naphthyridin-2-one]",0.262 µM
21,"Cc1cc2c(cn1)cc(-c1cc(Nc3noc(-c4nc(C)oc4C)n3)ccc1C)c(=O)n2C [Compound A45, 3-(5-{[5-(2,5-dimethyl-1,3-oxazol-4-yl)-1,2,4-oxadiazol-3-yl]amino}-2-methylphenyl)-1,7-dimethyl-1,2-dihydro-1,6-naphthyridin-2-one]",0.263 µM
22,Cc1cc2c(cn1)cc(-c1cc(Nc3cc(-c4ccc(F)cc4)on3)ccc1C)c(=O)n2C [Compound D11],0.082 µM
23,"Cc1cc2c(cn1)cc(-c1cc(Nc3noc(-c4ccc(F)cc4F)n3)ccc1C)c(=O)n2C [Compound A61, 3-(5-{[5-(2,4-difluorophenyl)-1,2,4-oxadiazol-3-yl]amino}-2-methylphenyl)-1,7-dimethyl-1,2-dihydro-1,6-naphthyridin-2-one]",0.097 µM
24,"Cc1cc2c(cn1)cc(-c1cc(Nc3noc(-c4csc(-c5cccnc5)n4)n3)ccc1C)c(=O)n2C [Compound A44, 1,7-dimethyl-3-[2-methyl-5-({5-[2-(pyridin-3-yl)-1,3-thiazol-4-yl]-1,2,4-oxadiazol-3-yl}amino)phenyl]-1,2-dihydro-1,6-naphthyridin-2-one]",0.456 µM
25,"Cc1cc2c(cn1)cc(-c1cc(Nc3noc(-c4cccnc4)n3)ccc1C)c(=O)n2C [Compound A10, 1,7-dimethyl-3-(2-methyl-5-{[5-(pyridin-3-yl)-1,2,4-oxadiazol-3-yl]amino}phenyl)-1,2-dihydro-1,6-naphthyridin-2-one]",0.145 µM
